Assay results reported in patent publication US20230114854A1, “CHIMERIC ANTIGEN RECEPTOR TARGETING B-CELL MATURATION ANTIGEN AND USE THEREOF” (CELLGENTEK CO., LTD., priority 2020, published 2023).
Where “and” joins values, the source holds several entries; their conditions need not be identical. Equal entries are not always repeated.

What was measured:
[1] = tested on: multiple myeloma cell line H929 xenograft; conditions: for growth inhibition rate (GIR (%)) versus untreated group (Vehicle): Day 17, NK cells 1×10^7 cells i.v. ×3, Velcade and Darzalex 0.5 mg/kg i.p. ×5
Method: In a xenograft animal model using NOD.Cg-Prkdcscid Il2rgtm1Wj1/SzJ (NSG) mouse (Jackson Laboratory, Jax #00557 strain), the anticancer efficacy of BCMA-CAR NK cells expressing BCMA-CAR1 was evaluated.
After subcutaneous implantation of multiple myeloma cell line H929 with high BCMA expression, when the tumor size reached 150 mm^3 (10 days post implantation), 5 mice were randomly assigned to each group, and once every 5 days, BCMA-CAR NK cells or control NK cells (NKvec) were administered at a concentration of 1×10^7 cells via intravenous tail vein injection (i.v.) in a total of 3 administrations. Here, a proteasome inhibitor, Velcade® (ingredient name: Bortezomib) and an antibody medication, Darzalex® (ingredient name: Daratumumab) being used as treatment medications for multiple myeloma patients were used as control drugs, and Velcade® (Vel) and Darzalex® (Dara) were each administered at a concentration of 0.5 mg/kg via intraperitoneal (i.p.) route, once every 3-4 days, in a total of 5 administrations.

[2] = target: BCMA expressed on multiple myeloma cells (H929, MM1.R, OPM-2) (UniProt Q02223); assay: cell-based or functional assay
Chain of UniProt Q02223 (Q02223 whole entry): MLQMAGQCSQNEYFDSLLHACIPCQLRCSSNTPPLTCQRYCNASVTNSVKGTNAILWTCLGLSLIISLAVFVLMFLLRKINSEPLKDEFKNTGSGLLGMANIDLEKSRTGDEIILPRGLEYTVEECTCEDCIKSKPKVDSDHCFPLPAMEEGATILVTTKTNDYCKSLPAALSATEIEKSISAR

CC(C)C[C@H](NC(=O)[C@H](Cc1ccccc1)NC(=O)c1cnccn1)B(O)O [Velcade, Bortezomib]
growth inhibition rate (GIR (%)) versus untreated group (Vehicle) [1]: 39%
toxicity (body weight) ([1]; mouse, in vivo): toxicity i.e., a decrease in body weight

Daratumumab [Darzalex]
growth inhibition rate (GIR (%)) versus untreated group (Vehicle) [1]: 23%

B1: BCMA-CAR2 (protein)
chain: EVQLLESGGGLVQPGGSLRLSCAASGFTFSNYGVHWVRQAPGKGLEWVSYISYSGGTYYNPSLKSRFTISRDNSKNTLYLQMNSLRAEDTAVYYCARDSDDFGFDYWGQGTLVTVSSGSTSGSGKPSGEGSTKGQSVLTQPPSASGTPGQRVTISCQGDSLRSYYVNWYQQLPGTAPKLLIYDHSKRPTGVPDRFSGSKSGTSASLAISGLRSEDEADYYCQSYDSSTVVFGGGTKLTVLGALSNSIMYFSHFVPVFLPAKPTTTPAPRPPTPAPTIASQPLSLRPEASRPAAGGAVHTRGLDKPFWVLVVVGGVLACYSLLVTVAFIIFWVRSKRSRLLHSDYMNMTPRRPGPTRKHYQPYAPPRDFAAYRSGGGGSKRGRKKLLYIFKQPFMRPVQTTQEEDGCSCRFPEEEEGGCELGGGGSRVKFSRSADAPAYQQGQNQLYNELNLGRREEYDVLDKRRGRDPEMGGKPRRKNPQEGLYNELQKDKMAEAYSEIGMKGERRRGKGHDGLYQGLSTATKDTYDALHMQALPPR
cytolytic activity toward multiple myeloma cells (H929, MM1.R, OPM-2), versus control NK cells (NKvec) [2]: 3 to 4 times and > 4 times

B2: BCMA-CAR3 (protein)
chain: EVQLLESGGGLVQPGGSLRLSCAASGFTFSDYGLSWVRQAPGKGLEWVSLIDSSGSSTFYADSVKGRFTISRDNSKNTLYLQMNSLRAEDTAVYYCAKEHGLFDSWGQGTLVTVSSGSTSGSGKPSGEGSTKGEIVLTQSPGTLSLSPGERATLSCKASQDIDDDINWYQQKPGQAPRLLIYDASLRATGIPDRFSGSGSGTDFTLTISRLEPEDFAVYYCQQSLRTPITFGQGTKLEIKRALSNSIMYFSHFVPVFLPAKPTTTPAPRPPTPAPTIASQPLSLRPEASRPAAGGAVHTRGLDKPFWVLVVVGGVLACYSLLVTVAFIIFWVRSKRSRLLHSDYMNMTPRRPGPTRKHYQPYAPPRDFAAYRSGGGGSKRGRKKLLYIFKQPFMRPVQTTQEEDGCSCRFPEEEEGGCELGGGGSRVKFSRSADAPAYQQGQNQLYNELNLGRREEYDVLDKRRGRDPEMGGKPRRKNPQEGLYNELQKDKMAEAYSEIGMKGERRRGKGHDGLYQGLSTATKDTYDALHMQALPPR
cytolytic activity toward multiple myeloma cells (H929, MM1.R, OPM-2), versus control NK cells (NKvec) [2]: 3 to 4 times and > 4 times

B3: BCMA-CAR4 (protein)
chain: EVQLLESGGGLVQPGGSLRLSCAASGFTFSGHYWSWVRQAPGKGLEWVSTVSGSGGDTFYADSVKGRFTISRDNSKNTLYLQMNSLRAEDTAVYYCARGHSVMDVWGQGTLVTVSSGSTSGSGKPSGEGSTKGEIVLTQSPGTLSLSPGERATLSCRASQGIDSYVAWYQQKPGQAPRLLIYDASLRATGIPDRFSGSGSGTDFTLTISRLEPEDFAVYYCQQYNSWPITFGQGTKLEIKRALSNSIMYFSHFVPVFLPAKPTTTPAPRPPTPAPTIASQPLSLRPEASRPAAGGAVHTRGLDKPFWVLVVVGGVLACYSLLVTVAFIIFWVRSKRSRLLHSDYMNMTPRRPGPTRKHYQPYAPPRDFAAYRSGGGGSKRGRKKLLYIFKQPFMRPVQTTQEEDGCSCRFPEEEEGGCELGGGGSRVKFSRSADAPAYQQGQNQLYNELNLGRREEYDVLDKRRGRDPEMGGKPRRKNPQEGLYNELQKDKMAEAYSEIGMKGERRRGKGHDGLYQGLSTATKDTYDALHMQALPPR
cytolytic activity toward multiple myeloma cells (H929, MM1.R, OPM-2), versus control NK cells (NKvec) [2]: 3 to 4 times and > 4 times
